Test results from US6713048B2, “Δ9 tetrahydrocannabinol (Δ9 THC) solution metered dose inhalers and methods of use” (Virginia Commonwealth University, priority 1998, dated 2004).
“Also recorded” adds a separate entry of the source. Like-named read-outs stand apart in the source and are kept apart here.

Experiments:
[1] = system: AIDS-associated anorexia and cachexia; conditions: oral 2.5 mg THC once or twice daily increasing to 20 mg daily; 94 patients; 12 months; cited from earlier work
[2] = system: healthy and asthmatic subjects; conditions: aerosolized Δ^9-THC from MDI, cited from earlier work
[3] = MDI fine particle dose (Andersen Cascade Impactor); assay type: physicochemical; conditions: HFA 134a-ethanol MDI; 40° C., 82% relative humidity, 28 days
Procedure: A Δ^9 THC MDI was formulated and the physical properties of the aerosolized drug characterized. The mass of drug metered by the metering valve was determined following a single actuation (metered dose). The mass of drug delivered (emitted dose) was determined. The mass of particles with an aerodynamic diameter less than 4.7 μm was determined.
Appearance, metered dose reproducibility, emitted dose and particle size distribution of the Δ^9 THC MDI were investigated, before and after storage in an environment maintained at 40° C. and 82% relative humidity for a 28 day period. The mass of drug metered by the metering valve (metered dose, n=10) was determined by collecting single actuations directly from the valve in a puff absorber, using the methods of Byron, 1994.
THC was analyzed by LC-UV detection at 280 nm using a 75:25 acetonitrile: 1% acetic acid mobile phase for Δ^9-THC detection. A standard reverse phase C18 column was used.

[4] = system: Spasticity and pain due to spinal cord injury; conditions: oral THC (5 mg) or codeine (50 mg); 1 patient; cited from earlier work
[5] = system: Nausea and emesis due to Cancer chemotherapy; conditions: oral 10 mg/m^2 THC; refractory to other antiemetics; cited from earlier work
[6] = system: asthmatic patients; conditions: low concentration aerosol; cited from earlier work
[7] = system: Spasticity related to multiple sclerosis; conditions: 13 patients, cited from earlier work
[8] = cited from earlier work
[9] = Apparent solubility of Δ^9 THC in ethanol/HFA propellant blends; assay type: physicochemical
Description: When the propellant is a hydrofluoroalkane, it has been discovered that the propellant may be used with or without a solvent such as ethanol. Higher percentages of solvent generally allow higher levels of dissolution of Δ^9 THC. However, higher percentages of solvent also cause droplet size to increase. […] Within this range of percentages, pharmaceutically useful concentrations of Δ^9 THC can be achieved and droplet size is still small enough (<5.8 um) to provide excellent aerosol delivery of the drug. While these ratios reflect preferred embodiments of the invention, it will be recognized by those of skill in the art that the exact ratio of propellant to solvent (e.g. ethanol) may vary according to the desired final concentration of Δ^9 THC and droplet size. Any ratio of propellant to solvent that results in appropriate sized droplets and adequate dissolution of the Δ^9 THC may be used in the practice of this invention, and this will generally be in the range of from 100 to 80% propellant and 0 to 20% solvent. It is expected that a wide variety of solvents, such as ethanol, propanol, propylene glycol, glycerol, polyethylene glycol, etc. may be used in the preparation of formulations contemplated by this invention.

[10] = system: Glaucoma; conditions: oral 5, 10, 15 and 20 mg THC; 6 glaucoma patients; cited from earlier work
[11] = system: Nausea and emesis due to Cancer chemotherapy; conditions: oral 5 or 15 mg/m^2 THC four times per day; 53 patients refractory to other antiemetics; cited from earlier work
[12] = system: intra ocular pressure; conditions: intravenous THC 0.022 or 0.044 mg/kg; ten subjects with normal intra ocular pressure; cited from earlier work
[13] = system: airways; conditions: nebulized micro-aerosol, propylene glycol vehicle; cited from earlier work
[14] = system: Nausea and emesis due to Cancer chemotherapy; conditions: oral 10 mg/m^2 THC; 84 patients; cited from earlier work
[15] = intravenous, bolus, 5 mg (Ohlsson et al., 1980)
[16] = oral, in cookies, 20 mg (Ohlsson et al., 1980)
[17] = oral, sesame oil in gelatin capsules, 2.5, 5, or 10 mg (PDR, 1995)
[18] = smoking, 13 mg (Ohlsson et al., 1980)

**Q.** Which “appetite compared to controls” value [1] does the source give for `CCCCCc1cc(O)c2c(c1)OC(C)(C)[C@@H]1CCC(C)=C[C@@H]21` (relative stereo) [Δ^9 THC, (6aR-trans)-6a,7,8,10a-tetrahydro-6,6,9-trimethyl-3-pentyl-6H-dibenzo[b,d]-pyran-1-ol] here?
**A.** improved appetite and only

**Q.** What about the “weight compared to controls” value [1] of the same molecule?
**A.** tended to increase weight

**Q.** What about the “systemic side effects (increased heart rate, subjective reports of being 'high')” value ([2]; healthy patients, at higher doses) of the same molecule?
**A.** substantial systemic side effects

**Q.** What about the “bronchial effect in healthy patients” value ([2]; healthy patients) of the same molecule?
**A.** bronchodilation was seen

**Q.** What about the “bronchial effect in asthmatic patients” value ([2]; some asthmatic patients) of the same molecule?
**A.** bronchoconstriction occurred

**Q.** What about the “deterioration/degradation of Δ^9-THC content on storage” value [3] of the same molecule?
**A.** no deterioration; also recorded: no significant degradation

**Q.** And the effect on spasticity [4]?
**A.** THC had a beneficial effect

**Q.** And the “courses resulting in a reduction of vomiting (of 20 courses of THC)” value [5]?
**A.** resulted in no vomiting, 9

**Q.** What about the “courses resulting in no decrease in vomiting (of 20 courses of THC)” value [5] of the same molecule?
**A.** vomiting, 3 resulted in no

**Q.** What about the “courses resulting in no vomiting (of 20 courses of THC)” value [5] of the same molecule?
**A.** In 20 courses of THC, 5

**Q.** And the “bronchial and systemic effects” value [6]?
**A.** bronchodilation without systemic side effects

**Q.** And the “objective measurements of spasticity” value ([7]; oral 2.5 to 15 mg THC once or twice daily)?
**A.** no significant improvement

**Q.** And the “subjective improvement in spasticity” value ([7]; oral, at 7.5 mg THC and higher, once or twice daily)?
**A.** Significant subjective

**Q.** And the “% Dose in Plasma” value [8, 15]?
**A.** 100%

**Q.** And the “Onset of Pharmacological Action” value [8, 15]?
**A.** 10 min

**Q.** And the “Peak Plasma Levels (time)” value [8, 15]?
**A.** 3 min

**Q.** What about the “% Dose in Plasma” value [8, 16] of the same molecule?
**A.** 4 to 12%

**Q.** And the “Onset of Pharmacological Action” value [8, 16]?
**A.** 120-180 min

**Q.** And the “Peak Plasma Levels (time)” value [8, 16]?
**A.** 60 to 90 min

**Q.** What about the “% Dose in Plasma” value [8, 17] of the same molecule?
**A.** 10 to 20%

**Q.** And the “Onset of Pharmacological Action” value [8, 17]?
**A.** 0.5 to 1 hour

**Q.** What about the “Peak Plasma Levels (time)” value [8, 17] of the same molecule?
**A.** 120 to 480 min

**Q.** And the “% Dose in Plasma” value ([8]; smoking (THC lost to side stream smoke and pyrolysis), 13 mg (Ohlsson et al., 1980))?
**A.** 8 to 24%

**Q.** And the “Onset of Pharmacological Action” value [8, 18]?
**A.** 10 min

**Q.** What about the “Peak Plasma Levels (time)” value [8, 18] of the same molecule?
**A.** 3 min

**Q.** What about the “Apparent Solubility Mean (±SD)” value ([9]; 5% Ethanol/95% HFA 134a) of the same molecule?
**A.** 1.585% w/w

**Q.** And the “Apparent Solubility Mean (±SD)” value ([9]; 5% Ethanol/95% HFA 227)?
**A.** 1.339% w/w

**Q.** And the “Apparent Solubility Mean (±SD)” value ([9]; 10% Ethanol/90% HFA 227)?
**A.** 3.240% w/w

**Q.** And the “Apparent Solubility Mean (±SD)” value ([9]; 10% Ethanol/90% HPA 134a)?
**A.** 3.511 % w/w

**Q.** What about the “Apparent Solubility Mean (±SD)” value ([9]; 15% Ethanol/85% HFA 134a) of the same molecule?
**A.** 4.883% w/w

**Q.** What about the “Apparent Solubility Mean (±SD)” value ([9]; 15% Ethanol/85% HFA 227) of the same molecule?
**A.** 5.94 % w/w

**Q.** And the “Apparent Solubility Mean (±SD)” value ([9]; 100% HFA 134a, n = 5)?
**A.** 0.224% w/w

**Q.** What about the “Apparent Solubility Mean (±SD)” value ([9]; 100% HFA 227) of the same molecule?
**A.** 0.147 % w/w

**Q.** And the appetite [10]?
**A.** appetite stimulation,

**Q.** What about the mood [10] of the same molecule?
**A.** elevated mood

**Q.** What about the pain [10] of the same molecule?
**A.** Pain relief

**Q.** What about the “patients with THC-induced partial or complete blockade of vomiting” value [11] of the same molecule?
**A.** 72% of patients exhibited a

**Q.** And the “mean decrease of intra ocular pressure” value [12]?
**A.** presser by mean of 37%

**Q.** What about the “bronchial and systemic effects” value [13] of the same molecule?
**A.** bronchodilation without systemic effects

**Q.** What about the “antiemetic efficacy compared with prochloperazine” value [14] of the same molecule?
**A.** THC more effective than
